Patent US20210340563A1, “DONOR T-CELLS WITH KILL SWITCH” (CSL BEHRING LLC, priority 2018, published 2021)

Experiments:
[1] = test system: CEM cells; test: negative selection with MTX or MPA on CEM cells; assay type: cell-based; conditions: 1 μM of MPA or 0.3 μM of MTX or 10 μM of MPA; for GFP-population of transduced cells under MPA or MTX: CEM experiment
[2] = test system: K562 cells; test: negative selection with MTX on K562 cells; assay type: cell-based, human; conditions: 0.3 μM of MTX, day 0 to day 14
Description: Transduced or transfected K562 cells (such as those from Example 1) were cultured with or without MTX from day 0 to day 14. The medium was refreshed every 3 to 4 days. GFP was analyzed on a flow machine and the InDel % was analyzed by T7E1 assay. […] On the other hand, the population of cells was steady without MTX. FIG. 14B illustrates that the transfected K562 cells were eliminated under treatment with 0.3 μM of MTX at a faster pace as compared with the HPRT-knockdown population.
K562 cells were transduced with either (i) a TL20cw-GFP virus soup at dilution factor of 16, (ii) a TL20cw-Ubc/GFP-7SK/sh734 virus soup at a dilution factor of 16 (one sequentially encoding GFP and a shRNA designed to knockdown HPRT); or (iii) a TL20cw-7SK/sh734-UBC/GFP virus soup at a dilution factor of 16 (one sequentially encoding a shRNA designed to knockdown HPRT and GFP) (see FIG. 16). K562 cells were also transduced by a TL20cw-7SK/sh734-UBC/GFP virus soup at a dilution factor of 1024 (one encoding a nucleic acid encoding a shRNA designed to knockdown HPRT) (also shown in FIG. 16). Three days following transduction, all cells were cultured with medium containing 0.3 μM of MTX 3. […] The relative sh734 expression per vector copy number (VCN) for sh734-GFP-transduced cells and GFP-sh734-transduced cells were measured.

[3] = test system: K562 cells; test: ex vivo 6TG selection of HPRT knockdown/knockout K562 cells; assay type: cell-based, human
Description: These initial preliminary experiments were performed in K562 cells (human immortalized myelogenous leukemia line) (rsh7-GFP=short hairpin to HPRT/GFP lentiviral vector to knockdown HPRT; nanoRNP-HPRT=CRISPR/Cas9 ribonucleoprotein nanocapsules to knockout HPRT).
K562 cells were transduced with an expression vector including a nucleic acid sequence designed to knockdown HPRT and a nucleic acid sequence encoding the green fluorescent protein (GFP) (MOI=1/2/5); or were transfected with a nanocapsule including CRISPR/Cas9 and a sgRNA to knockout HPRT (100 ng/5×10^4 cells) at day zero (0). 6TG was added into the medium from day 3 through day 14. The medium was refreshed every 3 to 4 days. GFP was analyzed on a flow machine and the InDel % as analyzed with a T7E1 assay.

[4] = test system: CEM cells; test: 6TG selection of HPRT knockdown/knockout CEM cells; assay type: cell-based
Description: CEM cells were transduced with an expression vector including a nucleic acid sequence designed to knockdown HPRT and a nucleic acid sequence encoding the green fluorescent protein or transfected with a nanocapsule including CRISPR/Cas9 and a sgRNA to HPRT at day 0. 6TG was added into the medium from day 3 to day 17. The medium was refreshed every 3 to 4 days. GFP as analyzed on a flow machine and the InDel % is analyzed by a T7E1 assay. FIG. 13A illustrates that the GFP+ population of transduced K562 cells increased from day 3 to day 17 under treatment of 6TG while GFP+ population was almost steady without. […] It should be noted that 6TG selection process occurred faster on HPRT knockout cells rather than HPRT knockdown cells (MOI=1) at the same concentration of 6TG from day 3 to day 17.

[5] = test system: Jurkat cells; test: 6-TG resistance of HPRT knockout Jurkat cells, luminescence (ATP detection) cell viability; assay type: cell-based
Description: (§1) Jurkat cells were electroporated with a ribonucleoprotein (RNP) complex containing guide RNA (gRNA; GS-4; designated IDT-4) together with the Cas9 and tracrRNA. Cells which were confirmed to be transfected with the gRNA via tracr RNA were purified using fluorescence activated cells sorting (FACS) and subsequently cultured for 72 hours. Increasing concentrations of 6-thioguanine (6-TG) were then administered to the transduced cultured cells to assess resistance. Wild type (unmodified) Jurkat cells were used as a control.
Luminescence (ATP detection) was used to assess cell viability.

[6] = test system: HPRT protein; test: Western blot for HPRT protein in Jurkat cells; assay type: cell-based; conditions: modified Jurkat cells; actin loading control
Description: as §1
Unmodified (WT) and IDT-4 modified Jurkat cells were also analyzed for HPRT protein using Western blot (see FIG. 25). […] Actin protein detection (bottom panel) was used as a protein loading control.

[7] = test system: Jurkat cells; test: methotrexate dose response of HPRT knockout Jurkat cells; assay type: cell-based; conditions: MTX 0.00625 and 0.0125 μM, cultured for 5 days
Description: Jurkat cells (unmodified; WT) were cultured with increasing concentrations of methotrexate (MTX) to determine the MTX dosage window required to kill WT cells (see FIG. 28). A dose range of between 0.00625 and 0.025 μM MTX was selected for subsequent assessment of HPRT Knockout (IDT-4 modified) Jurkat cells.
Dose response of HPRT Knockout (IDT-4 modified) Jurkat cells to MTX was compared to unmodified Jurkat cells (WT) to determine sensitivity to MTX (see FIG. 29).

[8] = 900 nM of 6TG compared with 300/600 nM of 6TG

## COc1c(C)c2c(c(O)c1C/C=C(\C)CCC(=O)O)C(=O)OC2 [MPA, mycophenolic acid]
[1]
  HPRT knockout population of CEM cells under MPA or MTX: eliminated at a faster pace
  GFP-population of transduced cells under MPA or MTX: decreased

## CN(Cc1cnc2nc(N)nc(N)c2n1)c1ccc(C(=O)N[C@@H](CCC(=O)O)C(=O)O)cc1 [MTX, methotrexate]
[1]
  HPRT knockout population of CEM cells under MPA or MTX: eliminated at a faster pace
  GFP-population of transduced cells under MPA or MTX: decreased
[2]
  GFP-population of transduced K562 cells under MTX: decreased
  transfected (HPRT knockout) K562 cells under MTX: eliminated

## Nc1nc2nc[nH]c2c(=S)[nH]1 [Vector 6TG, 6-thioguanine]
[3]; [8]
  speed of selection of HPRT knockout K562 cells: faster selection
[3]; CRISPR/Cas9 nanocapsule transfected, day 3 to 14
  HPRT knockout population of K562 cells under treatment with 6TG (InDel %, T7E1 assay): increased
[3]; HPRT knockdown vector with GFP, day 3 to day 14
  GFP+ population of transduced K562 cells under treatment of 6TG: increased
[4]; [8]
  speed of selection of HPRT knockout CEM cells: faster selection
[4]; CEM experiment, day 3 to day 17
  GFP+ population of transduced cells under treatment of 6TG: increased
[4]; day 3 to 17
  HPRT knockout population of CEM cells under treatment of 6TG: increased
[5]; increasing concentrations of 6-TG
  cell viability (luminescence) of unmodified (wild type) Jurkat cells: decrease in cell viability

## IDT-4: lead HPRT guide RNA, SEQ ID NO: 36, GGTTATGACCTTGATTTATT; used as Cas9 RNP (used with tracrRNA as Cas9 RNP, further chemistry not given here)
[6]
  HPRT protein level by Western blot: undetectable levels of HPRT
[7]
  sensitivity to MTX compared to wild type Jurkat cells: increased sensitivity to MTX
[5]; 6-TG tested up to 10 uM
  cell viability (luminescence) of gRNA-modified Jurkat cells with increasing 6-TG: resistance to increasing doses of 6-TG
